We go through 5 molecules from publication PMC6901909, “Synergy Pattern of Short Cationic Antimicrobial Peptides Against Multidrug-Resistant Pseudomonas aeruginosa” (Frontiers in Microbiology, 2019).

In brackets after ≈: the same amount, converted by molar mass. Where two headings read alike, the source gives them in different places. Bridge positions count the residues as written; N and C are the ends. Square brackets hold non-standard residues; d marks the D form. Peptide text beside a SMILES is read from it. * marks the point of attachment. X1 = CC[C@H](C)CCCCC(=O)*; Dab = NCC[C@H](N)C(=O)O

Common to all, as to assay: microbe, parasite or virus in culture
Common to all, as to format: cell-based, Pseudomonas aeruginosa

The test system of one assay is MDR P. aeruginosa PA 927. To be noted: conventional antibiotics, microdilution, Mueller-Hinton broth, 2–5 10^5 CFU/ml, 18 h at 37°C, read visually, at least three repeats (n = 3). Summed up: (§1)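 Inoculum 2–5 10^5 CFU/ml in Mueller-Hinton broth, compounds twofold serially diluted, polypropylene microtiter plates. Strains are MDR isolates from clinical and municipal waste water.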

Another assay concerns MDR P. aeruginosa PA253. The conditions noted are these: conventional antibiotics, microdilution, Mueller-Hinton broth, 2–5 10^5 CFU/ml, 18 h at 37°C, read visually, at least three repeats (n = 3). The essentials: as §1
Another assay concerns MDR P. aeruginosa PA 915. To be noted: conventional antibiotics, microdilution, Mueller-Hinton broth, 2–5 10^5 CFU/ml, 18 h at 37°C, read visually, at least three repeats (n = 3). The essentials: as §1
In the next assay the test system is MDR P. aeruginosa PA 910. Summed up:
as §1

A further assay concerns P. aeruginosa PA01-wt. The conditions noted are these: conventional antibiotics, microdilution, Mueller-Hinton broth, 2–5 10^5 CFU/ml, 18 h at 37°C, read visually, at least three repeats (n = 3).
The subject of another assay is MDR P. aeruginosa PA 923. To be noted: conventional antibiotics, microdilution, Mueller-Hinton broth, 2–5 10^5 CFU/ml, 18 h at 37°C, read visually, at least three repeats (n = 3). The essentials: as §1
For a further assay, the system named is MDR P. aeruginosa PA 919. The conditions noted are these: conventional antibiotics, microdilution, Mueller-Hinton broth, 2–5 10^5 CFU/ml, 18 h at 37°C, read visually, at least three repeats (n = 3). Summed up: as §1
Setting [1] is: Pseudomonas aeruginosa, 18 h, antibiotic alone, as listed in the FIC table, read-out: MIC against PA910 in μM (antibiotics, head of Table 4).
[2] abbreviates: Pseudomonas aeruginosa, conventional antibiotics, microdilution, Mueller-Hinton broth, 2–5 10^5 CFU/ml, 18 h at 37°C, read visually, at least three repeats (n = 3), read-out: MIC PA 910.

For `CCN1CCN(C(=O)N[C@@H](C(=O)N[C@@H]2C(=O)N3[C@@H]2SC(C)(C)[C@@H]3C(=O)O)c2ccccc2)C(=O)C1=O` [Piperacillin], the MIC against MDR P. aeruginosa PA 927 (Pseudomonas aeruginosa) was 256 µM (≈ 132 µg/mL); against MDR P. aeruginosa PA253 (Pseudomonas aeruginosa), above 256 µM; in the assay on MDR P. aeruginosa PA 915 (Pseudomonas aeruginosa) it was above 256 µM; in the assay on MDR P. aeruginosa PA 910 (setting [1]), 64 to 128 µM; in the assay on MDR P. aeruginosa PA 910 (setting [2]), 64 to 128 µM (≈ 33.1 to 66.2 µg/mL); against P. aeruginosa PA01-wt (Pseudomonas aeruginosa, PA01WT), 4 µM (≈ 2.07 µg/mL). In addition, the MIC in the assay with MDR P. aeruginosa PA 923 (Pseudomonas aeruginosa) amounted to 128 µM (≈ 66.2 µg/mL); against MDR P. aeruginosa PA 919 (Pseudomonas aeruginosa), 64 µM (≈ 33.1 µg/mL).

For `CC[C@H](C)CCCCC(=O)N[C@@H](CCN)C(=O)N[C@H](C(=O)N[C@@H](CCN)C(=O)N[C@H]1CCNC(=O)[C@H]([C@@H](C)O)NC(=O)[C@H](CCN)NC(=O)[C@H](CCN)NC(=O)[C@H](CC(C)C)NC(=O)[C@@H](Cc2ccccc2)NC(=O)[C@H](CCN)NC1=O)[C@@H](C)O` [Polymyxin B] (X1-[Dab]T[Dab][Dab][Dab][dF]L[Dab][Dab]T; lactam 4-C (inferred); N-terminus assumed), the MIC against MDR P. aeruginosa PA 927 was 0.25 µM (≈ 0.301 µg/mL); against MDR P. aeruginosa PA253, 0.125 µM (≈ 0.15 µg/mL); in the assay with MDR P. aeruginosa PA 915, 0.25 µM (≈ 0.301 µg/mL); in the assay on MDR P. aeruginosa PA 910 (antibiotic alone, as listed in the FIC table, read-out: MIC against PA910 in μM (antibiotics, head of Table 4)) it was 0.13 µM; with MDR P. aeruginosa PA 910 (conventional antibiotics, microdilution, Mueller-Hinton broth, 2–5 10^5 CFU/ml, 18 h at 37°C, read visually, at least three repeats (n = 3), read-out: MIC PA 910) it was 0.125 µM (≈ 0.15 µg/mL); in the assay with P. aeruginosa PA01-wt it was 0.125 µM (≈ 0.15 µg/mL). Besides, the MIC with MDR P. aeruginosa PA 923 is on record as 0.25 µM (≈ 0.301 µg/mL); against MDR P. aeruginosa PA 919, 0.125 µM (≈ 0.15 µg/mL).

As for `CN(C)[C@@H]1C(O)=C(C(N)=O)C(=O)[C@@]2(O)C(O)=C3C(=O)c4c(O)cccc4[C@@](C)(O)[C@H]3C[C@@H]12` [Tetracyclin], the MIC is 16 µM (≈ 7.11 µg/mL) with MDR P. aeruginosa PA 927 (Pseudomonas aeruginosa); 32 µM (≈ 14.2 µg/mL) in the assay with MDR P. aeruginosa PA253 (Pseudomonas aeruginosa); 16 µM (≈ 7.11 µg/mL) with MDR P. aeruginosa PA 915 (Pseudomonas aeruginosa); 64 µM in the assay with MDR P. aeruginosa PA 910 (setting [1]); 64 µM (≈ 28.4 µg/mL) with MDR P. aeruginosa PA 910 (setting [2]); 8 µM (≈ 3.56 µg/mL) in the assay on P. aeruginosa PA01-wt (Pseudomonas aeruginosa, PA01WT). Moreover, the MIC with MDR P. aeruginosa PA 923 (Pseudomonas aeruginosa) is above 512 µM; in the assay with MDR P. aeruginosa PA 919 (Pseudomonas aeruginosa), 32 µM (≈ 14.2 µg/mL).

As for `NC[C@H]1O[C@H](O[C@H]2[C@H](O)[C@@H](O[C@H]3O[C@H](CO)[C@@H](O)[C@H](N)[C@H]3O)[C@H](N)C[C@@H]2N)[C@H](N)C[C@@H]1O` [Tobramycin], the MIC in the assay on MDR P. aeruginosa PA 927 (Pseudomonas aeruginosa) was 32 µM (≈ 15 µg/mL); against MDR P. aeruginosa PA253 (Pseudomonas aeruginosa), 64 µM (≈ 29.9 µg/mL); in the assay on MDR P. aeruginosa PA 915 (Pseudomonas aeruginosa), 64 µM (≈ 29.9 µg/mL); in the assay with MDR P. aeruginosa PA 910 (setting [1]) it was 32 µM; with MDR P. aeruginosa PA 910 (setting [2]) it was 32 µM (≈ 15 µg/mL); against P. aeruginosa PA01-wt (Pseudomonas aeruginosa, PA01WT), 0.25 to 0.5 µM (≈ 0.117 to 0.234 µg/mL). For the same molecule, the MIC in the assay with MDR P. aeruginosa PA 923 (Pseudomonas aeruginosa) came out at 32 µM (≈ 15 µg/mL); against MDR P. aeruginosa PA 919 (Pseudomonas aeruginosa) it was 64 µM (≈ 29.9 µg/mL).

As for Kanamycin, the MIC is listed as 128 µM with MDR P. aeruginosa PA 927; above 512 µM against MDR P. aeruginosa PA253; 64 µM with P. aeruginosa PA01-wt; 256 µM in the assay on MDR P. aeruginosa PA 923; 128 µM against MDR P. aeruginosa PA 919. Moreover, the “MIC PA 915” value in the assay on MDR P. aeruginosa PA 915 was in the range of 256 to 512 µM. In addition, the “MIC against PA910 in μM (antibiotics, head of Table 4)” value in the assay on MDR P. aeruginosa PA 910 (antibiotic alone, as listed in the FIC table) lay within 128 to 256 µM. Also, the “MIC PA 910” value in the assay on MDR P. aeruginosa PA 910 (conventional antibiotics, microdilution, Mueller-Hinton broth, 2–5 10^5 CFU/ml, 18 h at 37°C, read visually, at least three repeats (n = 3)) was 128 to 256 µM.
